Experimental data reported in patent US10329307B2, “Heterocyclic compounds as inhibitors of platelet aggregation” (UNIVERSITE DE MONTREAL, priority 2015, dated 2019).

Each molecule was assayed against PAR4 (Homo sapiens (Human), UniProt Q96RI0) (assay: FLIPR assay in PAR4-expressing HEK293 cells (PAR4 antagonist activity)). Conditions: H-Ala-Phe(4-F)-Pro-Gly-Trp-Leu-Val-Lys-Asn-Gly-NH2-induced intracellular calcium mobilization, 11-point curves.
Format: cell-based
From the text: The FLIPR assay is an exemplary in vitro assay for measuring the activity of the PAR4 antagonists of the present invention. In this assay, intracellular calcium mobilization is induced in PAR4 expressing cells by a PAR4 agonist and calcium mobilization is monitored. See, e.g., Example A.
HEK293 cells stably expressing PAR4 were generated by a standard method of transfection of human […] cDNA expression vector or by RAGE technology from Athersys Inc. (Cleveland, Ohio) and selected based on PAR4 protein expression of mRNA expression. […] These cells express endogenous PAR1 and can elicit calcium signal upon stimulation with PAR1 agonist peptide. Cells were grown in Dulbecco's Modified Eagle's Medium (DMEM) (Invitrogen, Carlsbad, Calif.), 10% FBS, 1% PSG, 3 μg/ml puromycin and 25 nM Methotrexate) at 37° C. with 5% CO2.
FLIPR-based calcium mobilization assay in HEK293 cells was used to measure PAR4 antagonism, agonism, and selectivity against PAR1. […] Counter screens for agonist activity and PAR1 antagonist activity were also performed. Briefly, PAR1/PAR4-expressing HEK293 cells were grown in DMEM (Life Technology, Grand Island, N.Y.) containing 10% heat-inactivated FBS, 1% Penicillin-Streptomycin, 10 μg/mL blasticidin, and 100 μg/mL Zeocin at 37° C. with 5% CO2. Cells were plated overnight prior to the experiment in a black 384-well Purecoat Amine clear bottom plate (Becton Dickinson Biosciences, San Jose, Calif.) at 10,000 cells/well in 30 μL growth medium and incubated in a humidified chamber at 37° C. with 5% CO2 overnight. Prior to compound addition, the cell medium was replaced with 40 μL of 1× calcium and magnesium-containing Hank's Balanced Saline Solution (HBSS) (with 20 mM HEPES) and 1:1000 diluted fluorescent calcium indicator (Codex Biosolutions, Gaithersburg, Md.). After a 30 minute incubation period at 37° C. and a further 30 minute incubation and equilibration period at room temperature, 20 μL test compound (diluted in 1×HBSS buffer) was added at various concentrations at 0.17% dimethyl sulfoxide (DMSO) final concentration. Changes in fluorescence intensity were measured using a Functional Drug Screening System (FDSS, Hamamatsu, Japan) to determine agonist activities. The cells were then incubated for 30 minutes at room temperature followed by addition of 20 μL of agonist peptide for antagonist activity measurement. […] Compound potency was derived from 11-point concentration-response curves.
As indicated above, the FLIPR assay, an in vitro assay, measures the PAR4 antagonist activity of compounds tested as described in Example A.

Sequence of PAR4 (Q96RI0 18-385): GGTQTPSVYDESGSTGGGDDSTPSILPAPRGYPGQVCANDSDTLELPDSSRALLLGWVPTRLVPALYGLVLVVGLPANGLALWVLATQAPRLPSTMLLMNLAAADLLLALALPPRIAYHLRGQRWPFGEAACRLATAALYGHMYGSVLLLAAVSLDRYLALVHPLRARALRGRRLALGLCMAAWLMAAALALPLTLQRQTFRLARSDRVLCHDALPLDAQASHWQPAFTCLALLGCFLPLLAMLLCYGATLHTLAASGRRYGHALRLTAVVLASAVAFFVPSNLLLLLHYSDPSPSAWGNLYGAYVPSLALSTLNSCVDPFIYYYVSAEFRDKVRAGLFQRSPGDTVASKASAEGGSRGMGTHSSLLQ

`COc1cc(OC[C@@H]2CCCN2c2ccc(C)cc2)c2cc(-c3cn4nc(OC)sc4n3)oc2c1` [Example 24] and `COc1cc(OC[C@H]2CCCN2c2ccc(Cl)cc2)c2cc(-c3cn4nc(OC)sc4n3)oc2c1` [Example 9] are the same in IC50: 950 nM for the first, 950 nM for the second.

Going from `COc1cc(OCC2CCCCN2c2ccc(Cl)cc2)c2cc(-c3cn4nc(OC)sc4n3)oc2c1` (stereo not shown) [Example 55] to `COc1ccc(N2CCC[C@H]2COc2cc(OC)cc3oc(-c4cn5nc(OC)sc5n4)cc23)cc1` [Example 17], the IC50 falls from 720 nM to 290 nM (2.5-fold). The second is the more potent here.

First: COc1cc(OC[C@H]2CCCN(c3ccc(Cl)cc3)C2)c2cc(-c3cn4nc(OC)sc4n3)oc2c1 [Example 35]
Second: COc1cc(OCC2CCCN(c3ccc(Cl)cc3)C2)c2cc(-c3cn4nc(OC)sc4n3)oc2c1 (stereo not shown) [Example 33]
The IC50 of the first is 1.9-fold higher: 840 nM for the first, 440 nM for the second. The second is the more potent here.

`COc1cc(OCC2CCCN(c3nncs3)C2)c2cc(-c3cn4nc(OC)sc4n3)oc2c1` (stereo not shown) [Example 60] and `COc1cc(OCC2CCCN(c3ncc(Br)s3)C2)c2cc(-c3cn4nc(OC)sc4n3)oc2c1` (stereo not shown) [Example 62] are within 1.5-fold of each other in IC50: 2700 nM for the first, 1900 nM for the second.

`COc1ccc(N2CCCC(COc3cc(OC)cc4oc(-c5cn6nc(OC)sc6n5)cc34)C2)c(OC)c1` (stereo not shown) [Example 42] and `COc1cc(OC[C@H]2CCCN(c3ccccc3)C2)c2cc(-c3cn4nc(OC)sc4n3)oc2c1` [Example 54] are within 1.5-fold of each other in IC50: 1100 nM for the first, 1400 nM for the second.

First: COc1cc(OCC2CCCN(c3ccc4c(c3)OCO4)C2)c2cc(-c3cn4nc(OC)sc4n3)oc2c1 (stereo not shown) [Example 38]
Second: COc1cc(OCC2CCCN(c3ccc(C#N)cc3)C2)c2cc(-c3cn4nc(OC)sc4n3)oc2c1 (stereo not shown) [Example 40]
The IC50 of the first is 2.4-fold lower: 540 nM for the first, 1300 nM for the second. The first is the more potent here.

Compared with `COc1ccc(N2CCN(C(=O)c3ccccc3)CC2COc2cc(OC)cc3oc(-c4cn5nc(C)ccc5n4)cc23)cc1` (stereo not shown) [Example 5, (3-(((6-methoxy-2-(6-methylimidazo[1,2-b]pyridazin-2-yl)benzofuran-4-yl)oxy)methyl)-4-(4-methoxyphenyl)piperazin-1-yl)(phenyl)methanone], `COc1ccc(COc2ccc(N3CCCC(COc4cc(OC)cc5oc(-c6cn7nc(OC)sc7n6)cc45)C3)cc2)cc1` (stereo not shown) [Example 70] is 6.9-fold lower in IC50: 24000 nM for the first, 3500 nM for the second.

Going from `COc1cc(OCC2CCN(c3ccccc3)CC2)c2cc(-c3cn4nc(OC)sc4n3)oc2c1` [Example 51] to `COc1cc(OCC2CCN(c3ccc(C#N)cc3)CC2)c2cc(-c3cn4nc(OC)sc4n3)oc2c1` [Example 48], the IC50 falls from 5000 nM to 1100 nM (4.5-fold).

First: COc1cc(OCC2CCCN(c3ccc(NC(=O)OC(C)(C)C)nc3)C2)c2cc(-c3cn4nc(OC)sc4n3)oc2c1 (stereo not shown) [Example 69]
Second: COc1cc(OCC2CCCN(c3ccc(NC(=O)OC(C)(C)C)cc3)C2)c2cc(-c3cn4nc(OC)sc4n3)oc2c1 (stereo not shown) [Example 68]
The IC50 of the first is 1.5-fold higher: 3200 nM for the first, 2100 nM for the second. The second is the more potent here.

First: COc1cc(OC[C@H]2CCCN2C2CCOCC2)c2cc(-c3cn4nc(OC)sc4n3)oc2c1 [Example 2, (R)-2-methoxy-6-(6-methoxy-4-((1-(tetrahydro-2H-pyran-4-yl)pyrrolidin-2-yl)methoxy)benzofuran-2-yl)imidazo[2,1-b][1,3,4]thiadiazole]
Second: COc1cc(OCC2CCCCN2c2ccc(Cl)cc2)c2cc(-c3cn4nc(OC)sc4n3)oc2c1 (single isomer, unassigned) [Example 56]
The IC50 of the first is 10-fold higher: 9400 nM for the first, 920 nM for the second.

`COc1cc(OC[C@@H]2CCCN2c2ccc(OC(F)(F)F)cc2)c2cc(-c3cn4nc(OC)sc4n3)oc2c1` [Example 23] and `COc1cc(OCC2CCCN(c3ccc(C(F)(F)F)cc3)C2)c2cc(-c3cn4nc(OC)sc4n3)oc2c1` (stereo not shown) [Example 39] are within 1.5-fold of each other in IC50: 600 nM for the first, 510 nM for the second.
